Measured values from ChEMBL document CHEMBL1201862, “PubChem BioAssay data set” (2004).
The source made the active and inactive calls.

Experiments:
Estrogen receptor = biological target: T1, Estrogen receptor (Homo sapiens, UniProt P03372);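 also: potency for inhibiting coactivator peptide recruitment to the receptor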
T1 sequence (P03372 whole entry): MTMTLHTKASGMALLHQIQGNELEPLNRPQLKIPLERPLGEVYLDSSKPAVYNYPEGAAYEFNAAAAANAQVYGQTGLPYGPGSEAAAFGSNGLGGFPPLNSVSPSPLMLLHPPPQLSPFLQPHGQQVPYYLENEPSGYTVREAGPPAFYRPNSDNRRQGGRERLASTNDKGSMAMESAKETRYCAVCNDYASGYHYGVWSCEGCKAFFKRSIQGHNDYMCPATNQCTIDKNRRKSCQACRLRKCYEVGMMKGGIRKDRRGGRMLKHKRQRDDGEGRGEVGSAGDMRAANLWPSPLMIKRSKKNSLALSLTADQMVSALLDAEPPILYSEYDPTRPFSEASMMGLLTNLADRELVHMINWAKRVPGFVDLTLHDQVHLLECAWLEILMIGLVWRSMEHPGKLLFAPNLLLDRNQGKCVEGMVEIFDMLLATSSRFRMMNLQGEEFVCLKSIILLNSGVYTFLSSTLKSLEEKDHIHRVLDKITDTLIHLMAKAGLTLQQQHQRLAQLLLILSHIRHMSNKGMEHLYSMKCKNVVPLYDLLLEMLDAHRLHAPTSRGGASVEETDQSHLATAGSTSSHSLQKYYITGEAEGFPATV

Large T antigen = Large T antigen (Simian virus 40, UniProt P03070); type: functional, Betapolyomavirus macacae;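 also: Confirmatory-stage PubChem screen for compounds that inhibit SV40 T antigen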
Chain of Large T antigen (P03070 whole entry): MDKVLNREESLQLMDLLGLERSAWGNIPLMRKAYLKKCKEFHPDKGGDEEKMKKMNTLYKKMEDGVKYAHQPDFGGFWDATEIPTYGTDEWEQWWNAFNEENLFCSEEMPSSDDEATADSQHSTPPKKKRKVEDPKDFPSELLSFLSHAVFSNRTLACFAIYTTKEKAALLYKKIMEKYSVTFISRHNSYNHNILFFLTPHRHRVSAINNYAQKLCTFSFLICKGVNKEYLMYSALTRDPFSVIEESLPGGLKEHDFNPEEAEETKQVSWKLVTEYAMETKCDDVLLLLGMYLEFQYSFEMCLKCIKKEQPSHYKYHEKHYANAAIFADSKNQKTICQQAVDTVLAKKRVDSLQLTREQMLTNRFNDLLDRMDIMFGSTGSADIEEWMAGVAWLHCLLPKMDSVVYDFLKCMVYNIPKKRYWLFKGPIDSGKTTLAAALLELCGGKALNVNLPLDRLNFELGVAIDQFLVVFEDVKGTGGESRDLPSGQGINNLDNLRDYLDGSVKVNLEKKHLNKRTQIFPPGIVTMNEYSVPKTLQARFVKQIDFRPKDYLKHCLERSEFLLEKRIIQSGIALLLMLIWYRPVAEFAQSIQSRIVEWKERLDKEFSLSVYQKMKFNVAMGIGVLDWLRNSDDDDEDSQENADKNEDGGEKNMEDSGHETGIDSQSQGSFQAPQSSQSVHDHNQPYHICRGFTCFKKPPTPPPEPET

cells = type: functional
SN12K1 = experiment: cells; type: functional; settings: Homo sapiens
[1] = biological target: FAD-linked sulfhydryl oxidase ALR (Homo sapiens, UniProt P55789); experiment: inhibitors of human ALR sulfhydryl oxidase, dose response, biochemical, H2O2 detection, luminescence, cherry-pick (AID 493248)
Chain of FAD-linked sulfhydryl oxidase ALR (P55789 whole entry): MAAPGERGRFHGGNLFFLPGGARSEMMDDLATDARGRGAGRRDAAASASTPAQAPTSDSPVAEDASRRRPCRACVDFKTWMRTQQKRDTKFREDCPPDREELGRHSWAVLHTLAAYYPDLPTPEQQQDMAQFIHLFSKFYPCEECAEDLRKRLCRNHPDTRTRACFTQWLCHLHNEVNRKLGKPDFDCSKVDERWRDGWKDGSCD

[2] = system: Streptococcus sp. 'group A'; experiment: growth inhibition of control SK(-) GAS strain, dose response, counter-screen for streptokinase expression inhibitor project, luminescence, kanamycin, BacTiterGlo, confirmation (AID 1900); type: functional, organism-based
Streptokinase A = biological target: T2, Streptokinase A (Streptococcus pyogenes serotype M1, UniProt P10520); experiment: S. pyogenes streptokinase expression inhibitors, potency, dose response, plasminogen activation absorbance, OD405 (AID 1914); type: functional, Streptococcus pyogenes M1 GAS;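 also: secreted streptokinase activity via plasminogen activation per viability signal from cell pellet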
T2 sequence (P10520 whole entry): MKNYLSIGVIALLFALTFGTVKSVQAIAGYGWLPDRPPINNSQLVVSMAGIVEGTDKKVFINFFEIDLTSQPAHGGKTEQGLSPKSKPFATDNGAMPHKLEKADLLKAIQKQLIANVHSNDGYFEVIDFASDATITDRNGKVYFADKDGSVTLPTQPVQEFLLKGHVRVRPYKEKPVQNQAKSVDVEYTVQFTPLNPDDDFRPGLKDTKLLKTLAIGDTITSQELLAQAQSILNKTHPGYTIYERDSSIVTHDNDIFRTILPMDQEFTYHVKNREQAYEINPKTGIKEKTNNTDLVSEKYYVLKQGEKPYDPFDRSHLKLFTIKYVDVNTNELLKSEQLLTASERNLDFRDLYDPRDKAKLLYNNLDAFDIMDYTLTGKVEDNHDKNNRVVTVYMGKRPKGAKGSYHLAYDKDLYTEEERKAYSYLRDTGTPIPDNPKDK

Streptococcus = experiment: Group A Streptococcus viability loss, dose response, counter-screen for streptokinase expression inhibitor project, luminescence, BacTiterGlo (AID 1915); type: functional, organism-based;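 also: potency for reduction of bacterial viability or growth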
[3] = THP-1 cell cytotoxicity, dose response, cytotoxicity control for non-replicating M. tuberculosis project (AID 489025); type: functional
[4] = Vero E6 cell cytotoxicity, dose response, cytotoxicity control for non-replicating M. tuberculosis project, secondary assay (AID 492998); type: functional, VeroE6; settings: Vero C1008
[5] = Luminescence Cell-Based Dose Confirmation HTS to Identify Activators of 5'UTR Stem-Loop Driven Alpha-Synuclein mRNA Translation in H4 Neuroglioblastoma Cells. [Related pubchem assays: 1829 (Project Summary), 1814 (Primary HTS)]; type: functional
[6] = Luminescence Cell-Based Dose Response HTS to Identify Activators of Luciferase Translation or Activity in H4 […] Cells. [Related pubchem assays: 1829 (Project Summary), 1814 (Primary HTS)]; type: functional
H4 = experiment: Luminescence Cell-Based Dose Response HTS to Identify Activators of 5'UTR Stem-Loop Driven Prion Protein mRNA Translation in H4 Neuroglioblastoma Cells. [Related pubchem assays: 1829 (Project Summary), 1814 (Primary HTS)]; type: functional; settings: Homo sapiens
Genome polyprotein = Genome polyprotein (dengue virus type 2, UniProt P29990); experiment: Dengue-2 NS5 methyltransferase inhibitors, primary screen, biochemical, confirmation dose response (AID 588689); type: functional
Chain of Genome polyprotein (P29990 2492-3391 limits assumed): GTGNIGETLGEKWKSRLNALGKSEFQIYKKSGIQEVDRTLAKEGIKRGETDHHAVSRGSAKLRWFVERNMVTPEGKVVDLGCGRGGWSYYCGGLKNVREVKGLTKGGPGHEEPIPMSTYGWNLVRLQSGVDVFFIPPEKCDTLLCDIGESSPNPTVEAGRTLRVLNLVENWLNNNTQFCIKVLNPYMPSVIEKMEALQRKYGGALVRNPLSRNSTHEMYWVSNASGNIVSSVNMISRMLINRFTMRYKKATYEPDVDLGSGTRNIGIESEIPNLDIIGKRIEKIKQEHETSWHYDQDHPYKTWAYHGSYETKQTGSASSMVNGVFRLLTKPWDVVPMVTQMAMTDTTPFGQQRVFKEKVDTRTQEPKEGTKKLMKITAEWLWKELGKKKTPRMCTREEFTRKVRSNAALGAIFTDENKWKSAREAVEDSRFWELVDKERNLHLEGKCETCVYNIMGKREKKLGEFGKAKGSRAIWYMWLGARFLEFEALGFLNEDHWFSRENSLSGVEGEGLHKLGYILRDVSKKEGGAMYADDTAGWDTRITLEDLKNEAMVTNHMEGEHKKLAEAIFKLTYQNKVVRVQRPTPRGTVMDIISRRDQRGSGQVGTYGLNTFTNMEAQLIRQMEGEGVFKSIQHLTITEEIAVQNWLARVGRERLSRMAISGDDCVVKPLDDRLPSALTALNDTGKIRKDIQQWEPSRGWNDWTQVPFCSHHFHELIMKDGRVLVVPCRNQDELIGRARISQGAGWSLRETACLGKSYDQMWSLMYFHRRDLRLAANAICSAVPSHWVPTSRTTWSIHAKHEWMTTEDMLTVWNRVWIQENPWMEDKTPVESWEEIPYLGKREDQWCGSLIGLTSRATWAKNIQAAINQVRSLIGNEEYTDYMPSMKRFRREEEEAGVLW

Paired box protein Pax-8 = Paired box protein Pax-8 (Homo sapiens, UniProt Q06710); experiment: inhibitors of PAX8-driven TPO luciferase reporter, dose response, RMG-I cells, cherry-pick (AID 687027); type: functional, cell-based;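 also: luciferase reporter driven by Pax8 target thyroperoxidase promoter measured by SteadyGlo luminescence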
Chain of Paired box protein Pax-8 (Q06710 whole entry): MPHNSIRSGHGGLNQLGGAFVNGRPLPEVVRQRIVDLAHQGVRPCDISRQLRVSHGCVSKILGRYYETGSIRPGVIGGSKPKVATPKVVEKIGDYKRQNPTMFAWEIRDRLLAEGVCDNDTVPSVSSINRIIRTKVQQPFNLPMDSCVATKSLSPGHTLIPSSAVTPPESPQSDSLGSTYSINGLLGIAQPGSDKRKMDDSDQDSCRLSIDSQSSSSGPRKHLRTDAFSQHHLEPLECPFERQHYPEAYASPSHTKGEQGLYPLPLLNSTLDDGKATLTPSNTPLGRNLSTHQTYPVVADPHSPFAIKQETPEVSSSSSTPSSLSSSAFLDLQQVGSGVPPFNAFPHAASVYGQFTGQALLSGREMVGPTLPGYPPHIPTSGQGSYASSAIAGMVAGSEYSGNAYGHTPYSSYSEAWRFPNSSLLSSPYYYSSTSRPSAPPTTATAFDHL

[7] = NIH:OVCAR-3 ovarian cancer cell cytotoxicity, dose response, PAX8 inhibitor project, plate reader, dry powder samples (AID 743044); type: functional, cell-based
[8] = biological target: Glyceraldehyde-3-phosphate dehydrogenase (Homo sapiens, UniProt P04406)
Chain of Glyceraldehyde-3-phosphate dehydrogenase (P04406 whole entry): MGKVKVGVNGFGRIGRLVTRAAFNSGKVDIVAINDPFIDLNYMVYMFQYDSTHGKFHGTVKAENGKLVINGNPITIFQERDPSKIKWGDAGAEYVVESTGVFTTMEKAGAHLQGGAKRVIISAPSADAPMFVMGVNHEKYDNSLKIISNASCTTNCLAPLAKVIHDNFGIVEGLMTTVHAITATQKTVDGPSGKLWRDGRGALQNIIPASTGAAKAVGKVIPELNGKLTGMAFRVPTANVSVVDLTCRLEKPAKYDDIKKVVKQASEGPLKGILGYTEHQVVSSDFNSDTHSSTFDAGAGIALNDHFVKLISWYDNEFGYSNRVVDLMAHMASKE

[9] = P. falciparum Dd2 growth inhibitors, dose response, SYBR Green, cherry-picked samples (AID 1159567); type: functional, cell-based
[10] = microbe, parasite or virus in culture; type: functional; settings: Mycobacterium tuberculosis
[11] = biological target: T3, RNA-binding protein pos-1 (Caenorhabditis elegans, UniProt G5EF15); experiment: inhibitors of POS-1/mex-3 RNA binding, dose response, biochemical, fluorescence polarization (AID 1964);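 also: purified POS-1 fused to maltose binding protein made in E. coli; potency of compounds blocking POS-1 binding to fluorescent RNA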
T3 sequence (G5EF15 whole entry): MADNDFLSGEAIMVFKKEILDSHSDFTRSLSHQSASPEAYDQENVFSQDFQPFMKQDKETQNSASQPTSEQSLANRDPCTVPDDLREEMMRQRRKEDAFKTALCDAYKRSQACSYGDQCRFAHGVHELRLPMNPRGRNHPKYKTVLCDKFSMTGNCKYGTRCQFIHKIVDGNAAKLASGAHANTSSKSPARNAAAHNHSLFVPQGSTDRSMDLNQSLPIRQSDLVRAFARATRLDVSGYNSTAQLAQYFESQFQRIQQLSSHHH

[12] = biological target: T4, Zinc finger protein mex-5 (Caenorhabditis elegans, UniProt Q9XUB2); experiment: MEX-5/TCR-2 RNA interaction inhibitors, dose response, biochemical, C. elegans, fluorescence polarization (AID 1960)
T4 sequence (Q9XUB2 whole entry): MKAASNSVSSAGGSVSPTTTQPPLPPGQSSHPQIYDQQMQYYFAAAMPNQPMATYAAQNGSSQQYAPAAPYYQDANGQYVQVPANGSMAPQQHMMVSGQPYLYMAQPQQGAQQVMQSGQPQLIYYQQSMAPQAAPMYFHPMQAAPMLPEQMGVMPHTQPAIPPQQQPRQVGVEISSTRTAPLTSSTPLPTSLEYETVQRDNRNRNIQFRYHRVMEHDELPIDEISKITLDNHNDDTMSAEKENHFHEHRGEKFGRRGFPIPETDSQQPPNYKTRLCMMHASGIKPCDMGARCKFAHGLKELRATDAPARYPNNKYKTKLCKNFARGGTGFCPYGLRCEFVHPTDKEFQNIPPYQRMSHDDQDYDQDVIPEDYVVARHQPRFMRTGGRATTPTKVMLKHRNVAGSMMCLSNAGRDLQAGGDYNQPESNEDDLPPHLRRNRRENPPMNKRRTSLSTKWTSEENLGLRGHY

[13] = biological target: T5, Polyadenylate-binding protein 1 (Homo sapiens, UniProt P11940); experiment: PABP1 MLLE–PAM2 interaction inhibitors, dose response, miRNA deadenylation inhibitor project, biochemical, fluorescence polarization, Cy5-PAM2 peptide, secondary (AID 602260); type: functional; settings: read-out: IC50_Mean
T5 sequence (P11940 whole entry): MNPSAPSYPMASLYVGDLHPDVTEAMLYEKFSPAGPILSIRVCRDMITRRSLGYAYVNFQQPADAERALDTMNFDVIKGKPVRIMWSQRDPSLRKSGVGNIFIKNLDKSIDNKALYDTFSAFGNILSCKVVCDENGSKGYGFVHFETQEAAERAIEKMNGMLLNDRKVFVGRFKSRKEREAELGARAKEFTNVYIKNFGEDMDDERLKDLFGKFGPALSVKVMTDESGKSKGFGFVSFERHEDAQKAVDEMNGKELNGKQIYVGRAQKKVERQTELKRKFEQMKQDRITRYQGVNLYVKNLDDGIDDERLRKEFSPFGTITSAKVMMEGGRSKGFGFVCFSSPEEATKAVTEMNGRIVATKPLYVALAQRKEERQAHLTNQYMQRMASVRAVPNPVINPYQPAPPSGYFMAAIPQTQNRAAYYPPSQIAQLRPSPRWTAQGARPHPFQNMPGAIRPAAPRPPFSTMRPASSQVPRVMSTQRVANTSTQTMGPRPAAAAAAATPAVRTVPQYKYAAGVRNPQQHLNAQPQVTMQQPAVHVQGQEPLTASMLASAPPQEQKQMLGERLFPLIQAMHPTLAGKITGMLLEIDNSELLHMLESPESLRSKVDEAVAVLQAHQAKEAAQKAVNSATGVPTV

[14] = biological target: T5, Polyadenylate-binding protein 1; experiment: PABP1 MLLE–PAM2 binding inhibitor potency, dose response, biochemical, fluorescence polarization, FITC-PAM2 peptide (AID 602259); type: functional; settings: read-out: IC50_Mean

COC(=O)C1=C(O)/C(=C\c2ccc(CNC(=O)C(=O)Nc3ccc(C)c(C)c3)o2)N=C1C
IC50 (Estrogen receptor): 19.6 µM (active)

O=C(O)c1cc(S(=O)(=O)O)cc(Nc2c3ccccc3nc3ccccc23)c1O
IC50 (Large T antigen): 20.2 µM (active)

CC12CN3CC(C)(CN(C1)C3c1ccc([N+](=O)[O-])o1)C2 (stereo not drawn)
IC50 (cells): 11.1 µM (active)

CCN(CC)c1ccc(NC(=O)c2ccccc2F)cc1
IC50 (Large T antigen): 18.8 µM (active)

COc1cc(/C=c2\sc3nc(-c4ccncc4)nn3c2=O)ccc1OC(C)=O
IC50 (Estrogen receptor): 31.7 µM (not active)

CN(C)CCNC(=O)c1cc([N+](=O)[O-])cc2ccc(-c3ccccc3)nc12
GI50 (SN12K1): 3.04 µM (inactive)

Cc1ccc(CCC(=O)Nc2cc(Cl)ccc2Cl)o1
IC50 (cells): 42.8 µM (active)

Cc1ccc(S(=O)(=O)N2CCN(CC(=O)N/N=C\c3ccc(O)c(O)c3)CC2)cc1
IC50 (Large T antigen): 9.98 µM (active) | AC50 [1]: 2.26 µM (active)

COc1ccc2cc(C(=O)C3CCCN(Cc4cccc(C)n4)C3)ccc2c1 (stereo not drawn)
EC50 [2]: 11.1 µM (active) | EC50 (Streptokinase A): > 150 µM (not active) | EC50 (Streptococcus): > 150 µM (not active) | CC50 [3]: > 40 µM (active) | IC50 (cells): 3 µM (active)

CCOC(=O)c1ccsc1NC(=O)CCS(=O)(=O)c1ccccc1
CC50 [3]: 34.5 µM (active) | CC50 [4]: > 20 µM (active)

O=C(COn1nnc2ccccc21)NCC1CCCCC1
EC50 [5]: 5.83 µM (active) | EC50 [6]: 68.8 µM (active) | EC50 (H4): 31.9 µM (inconclusive)

CC1(C)CC(=O)C(C(c2ccc(Br)cc2)C2C(=O)CC(C)(C)CC2=O)C(=O)C1
IC50 (Genome polyprotein): 79.3 µM (active)

O=C(C[C@@H]1CC[C@@H]2[C@H](COC[C@@H](O)CN2S(=O)(=O)c2cccc(Cl)c2)O1)Nc1ccc(-c2ccccc2)cc1
AC50 (Paired box protein Pax-8): 9.62 µM (active) | AC50 [7]: 18.9 µM (active)

COc1cc2cc(C(c3nnnn3C3CCCC3)N3CCc4ccccc43)c(=O)[nH]c2cc1OC (stereo not drawn)
IC50 (Estrogen receptor): 21.9 µM (active)

COc1ccc(N2CCN(C3=C(Cl)C(=O)N(c4cccc(C(F)(F)F)c4)C3=O)CC2)cc1
IC50 [8]: > 50 µM (inconclusive)

COc1ccccc1-c1cc(C(=O)Nc2sc3c(c2C#N)CCC(C)C3)c2ccccc2n1 (stereo not drawn)
IC50 (Genome polyprotein): 97.8 µM (active)

Cc1ccccc1S(=O)(=O)N(C)C[C@H]1OCc2ccccc2-c2ccccc2C(=O)N([C@@H](C)CO)C[C@H]1C
AC50 [9]: 20.9 µM (active)

COc1cccc(N2C(=O)C(Cl)=C(N3CCN(c4ncccn4)CC3)C2=O)c1
IC50 [8]: > 50 µM (inconclusive)

Cn1cnc([N+](=O)[O-])c1Sc1ccc(Br)cc1
CC50 [10]: 32.4 µM (active) | CC50 [3]: 34.4 µM (active) | CC50 [4]: > 20 µM (active) | IC50 (cells): 11.5 µM (active)

CSCCC1NC(=O)NC1=O (stereo not drawn)
IC50 (Estrogen receptor): > 50 µM (not active)

N#Cc1cccc(-c2ccc3c(c2)[C@H]2[C@H](CCN2C(=O)c2ccncc2)[C@H](CO)N3)c1
AC50 [9]: 7.86 µM (active)

Fc1ccc(NCc2cccnc2)cc1F
EC50 [11]: 15.4 µM (active) | EC50 [12]: 11.2 µM (active) | IC50 (Estrogen receptor): > 50 µM (not active) | IC50 [13]: > 66 µM (inactive) | IC50 [14]: 49.1 µM (inactive)

O=[N+]([O-])c1ccc(Sc2n[nH]c(-c3ccccc3)n2)nc1
EC50 [5]: 5.81 µM (active) | EC50 [6]: 93.9 µM (active) | EC50 (H4): > 120 µM (not active)

Cc1cccn2c(CN(C)CCC3CCCCO3)c(C(=O)N3CCCCC3)nc12 (stereo not drawn)
EC50 [5]: 19.9 µM (active) | EC50 [6]: > 120 µM (not active) | EC50 (H4): > 120 µM (not active)

Cn1c(=O)c2c(nc(NCC3CCCC(CN)C3)n2Cc2ccc(Cl)cc2Cl)n(C)c1=O (stereo not drawn)
EC50 [5]: > 120 µM (not active) | EC50 [6]: > 120 µM (not active) | EC50 (H4): > 120 µM (not active)

COC(=O)c1ccc(/N=C/c2c(-c3ccccc3)n[nH]c2O)cc1
EC50 [5]: > 120 µM (not active) | EC50 [6]: > 120 µM (not active) | EC50 (H4): > 120 µM (not active)

O=C(c1ccc(-c2ccc([N+](=O)[O-])cc2)o1)N1CCCCCCC1
CC50 [3]: 9 µM (active) | CC50 [4]: 9.37 µM (active) | IC50 (cells): 12.7 µM (active)

C=CCOc1c(Br)cc(/C=C2/C(=O)ON=C2C)cc1OC
IC50 (Genome polyprotein): > 100 µM (active)

Cc1cc(O)nc(-n2nc(C)cc2C)n1
CC50 [3]: > 40 µM (active) | CC50 [4]: > 20 µM (active) | IC50 (cells): 3.82 µM (active)

Cc1ccc(NC(=O)C2OCCc3ccccc32)cc1 (stereo not drawn)
EC50 [5]: 14.7 µM (active) | EC50 [6]: 12 µM (active) | EC50 (H4): 31.4 µM (active)

COc1ccc2nc(NC3=NCCC3)sc2c1
EC50 [5]: 37.7 µM (active) | EC50 [6]: 22.1 µM (active) | EC50 (H4): 8.52 µM (active)
